Where a name gives a salt, the structure may show the parent alone.
Each compound was assayed on Acinetobacter baumannii ATCC17961 (assay: Antimicrobial susceptibility testing, 90% growth inhibitory concentration (IC90) determination). Conditions: 90% growth inhibitory concentration, Acinetobacter baumannii ATCC17961, Iso-Sensitest broth, OD 600 nm over 16 h; read-out: ATCC17961 IC90.
Format: cell-based
Procedure: (§1) The in vitro antimicrobial activity of the compounds was determined according to the following procedure:
(§2) The assay used a 10-points Iso-Sensitest broth medium to measure quantitatively the in vitro activity of the compounds against Acinetobacter baumannii ATCC 17978 and Acinetobacter baumannii ATCC17961.
(§3) Stock compounds in DMSO were serially twofold diluted (e.g. range from 50 to 0.097 μM final concentration) in 384 wells microtiter plates and inoculated with 49 μl the bacterial suspension in Iso-Sensitest medium to have a final cell concentration of ˜5×10^(5) CFU/ml in a final volume/well of 50 ul/well. Microtiter plates were incubated at 35+2° C.
(§4) Bacterial cell growth was determined with the measurement of optical density at X=600 nm each 20 minutes over a time course of 16 h. Growth inhibition was calculated during the logarithmic growth of the bacterial cells with determination of the concentration inhibiting 50% (IC50) and 90% (IC90) of the growth.
(§5) Table 1 provides the 90% growth inhibitory concentrations (IC90) in micromoles per liter of the compounds of present invention obtained against the strain Acinetobacter baumannii ATCC17978 and Acinetobacter baumannii ATCC17961.

IC90	SMILES
0.987 µM	CCc1cc(Nc2nccn3c(-c4ccc(OC)c(F)c4F)cnc23)ccc1C(=O)N[C@H]1CCC[C@H]1NC(=O)[C@@H]1C[C@@H](O)CN1 [Example 53, (2S,4R)-N-((1R, 2S)-2-(4-((3-(2,3-difluoro-4-methoxyphenyl)imidazo[1,2-a]pyrazin-8-yl)amino)-2-ethylbenzamido)cyclopentyl)-4-hydroxypyrrolidine-2-carboxamide]
0.055 µM	COc1ccc(-c2cnc3c(Nc4ccc(C(=O)N[C@@H]5CCN(C(=O)[C@@H]6C[C@@H](O)CN6)C5)c(C)c4)nccn23)c(F)c1F [Example 63]
0.101 µM	COc1ccc(-c2cnc3c(Nc4ccc(C(=O)N[C@H]5C[C@H](NC(=O)[C@@H]6C[C@@H](O)CN6)C5)c(C)c4)nccn23)c(F)c1F [Example 67, (2S,4R)-N-((1r,3 S)-3-(4-((3-(2,3-difluoro-4-methoxyphenyl)imidazo[1,2-a]pyrazin-8-yl)amino)-2-methylbenzamido)cyclobutyl)-4-hydroxypyrrolidine-2-carboxamide]
0.754 µM	CCc1cc(Nc2nccn3c(-c4ccc(OC)c(F)c4F)cnc23)ccc1C(=O)NC1CCC(NC(=O)[C@@H](N)CCCNC(=N)N)C1 (mixture of isomers) [Example 46, rac-N-(3-((R)-2-amino-5-guanidinopentanamido)cyclopentyl)-4-((3-(2,3-difluoro-4-methoxyphenyl)imidazo[1,2-a]pyrazin-8-yl)amino)-2-ethylbenzamide bis(2,2,2-trifluoroacetate)]
0.315 µM	CCc1cc(Nc2nccn3c(-c4ccc(OC)c(F)c4F)cnc23)ccc1C(=O)N[C@@H]1C[C@H]1N (racemic) [Example 58, rac-N-((1R,2R)-2-aminocyclopropyl)-4-((3-(2,3-difluoro-4-methoxyphenyl)imidazo[1,2-a]pyrazin-8-yl)amino)-2-ethylbenzamide]
0.363 µM	CCc1cc(Nc2nccn3c(-c4ccc(OC)c(F)c4F)cnc23)ccc1C(=O)NC1CCCNC1 (centres unmarked) [Example 41, 4-((3-(2,3-difluoro-4-methoxyphenyl)imidazo[1,2-a]pyrazin-8-yl)amino)-2-ethyl-N-(piperidin-3-yl)benzamide]
0.279 µM	COc1ccc(-c2cnc3c(Nc4ccc(C(=O)NC5CNC5)c(C)c4)nccn23)c(F)c1F [Example 56, N-(azetidin-3-yl)-4-((3-(2,3-difluoro-4-methoxyphenyl)imidazo[1,2-a]pyrazin-8-yl)amino)-2-methylbenzamide]
0.173 µM	CCc1cc(Nc2nccn3c(-c4ccc(OC)c(F)c4F)cnc23)ccc1C(=O)NC1CC1NC(=O)[C@@H]1C[C@@H](O)CN1 (mixture of isomers) [Example 73, (2S,4R)-N-[(cis-1SR,2RS)-2-[[4-[[3-(2,3-difluoro-4-methoxy-phenyl)imidazo[1,2-a]pyrazin-8-yI]amino]-2-ethyl-benzoyl]amino]cyclopropyl]-4-hydroxy-pyrrolidine-2-carboxamide]
0.081 µM	COc1ccc(-c2cnc3c(Nc4ccc(C(=O)N[C@H]5CCN(C(=O)[C@@H]6C[C@@H](O)CN6)C5)c(C)c4)nccn23)c(F)c1F [Example 64, 4-((3-(2,3-difluoro-4-methoxyphenyl)imidazo[1,2-a]pyrazin-8-yl)amino)-N-((S)-1-((2S,4R)-4-hydroxypyrrolidine-2-carbonyI)pyrrolidin-3-yl)-2-methylbenzamide]

Same assay, conditions: Acinetobacter baumannii, ATCC17961, 16 h, read-out: ATCC17961 IC90

SMILES	IC90
CCc1cc(Nc2nccn3c(-c4ccc(OC)c(F)c4F)cnc23)ccc1C(=O)N[C@H]1[C@@H]2CNC[C@@H]21 [Example 72, rac-N-((1R,5 S,6s)-3-azabicyclo[3.1,0]hexan-6-yI)-4-((3-(2,3-difluoro-4-methoxyphenyl)imidazo[1,2-a]pyrazin-8-yl)amino)-2-ethylbenzamide hydrochloride]	0.295 µM

What follows are compounds tested on Acinetobacter baumannii ATCC 17978 in the same assay as above. Conditions: Acinetobacter baumannii ATCC17978, Iso-Sensitest broth, OD 600 nm over 16 h.
Format: cell-based
Procedure: as §1, §2, §3, §4, §5

IC90	SMILES
0.6 µM	COc1ccc(-c2cnc3c(Nc4ccc(C(=O)NC5CCN(C6CCS(=O)(=O)CC6)CC5)c(C)c4)nccn23)cc1F [Example 24, N-[1-(1,1-dioxothian-4-yl)piperidin-4-yl]-4-[[3-(3-fluoro-4-methoxyphenyl)imidazo[1,2-a]pyrazin-8-yl]amino]-2-methylbenzamide]
0.482 µM	CCc1cc(Nc2nccn3c(-c4ccc(OC)c(F)c4F)cnc23)ccc1C(=O)NC1(CN)COC1 [Example 40, N-(3-(aminomethyl)oxetan-3-yl)-4-((3-(2,3-difluoro-4-methoxyphenyl)imidazo[1,2-a]pyrazin-8-yl)amino)-2-ethylbenzamide hydrochloride]
0.93 µM	CCc1cc(Nc2nccn3c(-c4ccc(OC)c(F)c4F)cnc23)ccc1C(=O)N[C@H]1CCNC1=O [Example 30, 4-[[3-(2,3-difluoro-4-methoxyphenyl)imidazo[1,2-a]pyrazin-8-yl]amino]-2-ethyl-N-[(3 S)-2-oxopyrrolidin-3-yl]benzamide]
0.37 µM	CCc1cc(Nc2nccn3c(-c4ccc(OC)c(F)c4F)cnc23)ccc1C(=O)N[C@H]1CCNC1 [Example 28, 4-[[3-(2,3-difluoro-4-methoxyphenyl)imidazo[1,2-a]pyrazin-8-yl]amino]-2-ethyl-N-[(3S)-pyrrolidin-3-yl]benzamide;hydrochloride]
2.7 µM	COc1ccc(-c2cnc3c(Nc4ccc(C(=O)N[C@H]5CCNC[C@H]5F)c(C)c4)nccn23)cc1F [Example 26, 4-[[3-(3-fluoro-4-methoxyphenyl)imidazo[1,2-a]pyrazin-8-yl]amino]-N-[(3R,4S)-3-fluoropiperidin-4-yl]-2-methylbenzamide;2,2,2-trifluoroacetic acid]
0.18 µM	CCc1cc(Nc2nccn3c(-c4ccc(OC)c(F)c4F)cnc23)ccc1C(=O)NC1(CO)COC1 [Example 27, 4-[[3-(2,3-difluoro-4-methoxyphenyl)imidazo[1,2-a]pyrazin-8-yl]amino]-2-ethyl-N-[3-(hydroxymethyl)oxetan-3-yl]benzamide]

Continued, compound first:

SMILES	IC90
COc1ccc(-c2cnc3c(Nc4ccc(C(=O)N(C)[C@@H]5CNC[C@H]5O)c(C)c4)nccn23)cc1F [Example 17, 4-[[3-(3-fluoro-4-methoxyphenyl)imidazo[1,2-a]pyrazin-8-yl]amino]-N-[(3R,4R)-4-hydroxypyrrolidin-3-yl]-N,2-dimethylbenzamide;hydrochloride]	2.6 µM
COc1ccc(-c2cnc3c(Nc4ccc(C(=O)N(C)C5CCNCC5)c(C)c4)nccn23)cc1F [Example 21, 4-[[3-(3-fluoro-4-methoxyphenyl)imidazo[1,2-a]pyrazin-8-yl]amino]-N, 2-dimethyl-N-piperidin-4-ylbenzamide;hydrochloride]	1.1 µM
COc1ccc(-c2cnc3c(Nc4ccc(C(=O)NC5CCN(C)CC5)c(C)c4)nccn23)cc1 [Example 1, 4-((3-(4-methoxyphenyl)imidazo[1,2-a]pyrazin-8-yl)amino)-2-methyl-N-(1-methylpiperidin-4-yl)benzamide]	2.2 µM
COc1ccc(-c2cnc3c(Nc4ccc(C(=O)N(C)C5CCNCC5)c(Cl)c4)nccn23)cc1F [Example 20, 2-chloro-4-[[3-(3-fluoro-4-methoxyphenyl)imidazo[1,2-a]pyrazin-8-yl]amino]-N-methyl-N-piperidin-4-ylbenzamide;hydrochloride]	0.82 µM
COc1ccc(-c2cnc3c(Nc4ccc(C(=O)NC5COC(CN)OC5)c(C)c4)nccn23)cc1 (centres unmarked) [Example 7, N-(2-(aminomethyl)-1,3-dioxan-5-yl)-4-((3-(4-methoxyphenyl)imidazo [1,2-a]pyrazin-8-yl)amino)-2-methylbenzamide]	0.54 µM
COc1ccc(-c2cnc3c(Nc4ccc(C(=O)Nc5ccc(C(=O)O)cc5)c(C)c4)nccn23)cc1F [Example 25, 4-[[4-[[3-(3-fluoro-4-methoxyphenyl)imidazo[1,2-a]pyrazin-8-yl]amino]-2-methylbenzoyl]amino] benzoic acid]	1.5 µM
CCc1cc(Nc2nccn3c(-c4ccc(OC(F)F)c(F)c4F)cnc23)ccc1C(=O)NC1(CN)CC1 [Example 29, N-[1-(aminomethyl)cyclopropyl]-4-[[3-[4-(difluoromethoxy)-2,3-difluorophenyl]imidazo[1,2-a]pyrazin-8-yl]amino]-2-ethylbenzamide;hydrochloride]	0.71 µM
COc1ccc(-c2cnc3c(Nc4ccc(C(=O)N(C)C5CCN(C)CC5)cc4)nccn23)cc1 [Example 16, 4-[[3-(4-methoxyphenyl)imidazo[1,2-a]pyrazin-8-yl]amino]-N-methyl-N-(1-methylpiperidin-4-yl)benzamide]	5.9 µM
Cc1cc(Nc2nccn3c(-c4ccc(OC(F)F)c(F)c4)cnc23)ccc1C(=O)N(C)C1CCNCC1 [Example 22, 4-[[3-[4-(difluoromethoxy)-3-fluorophenyl]imidazo[1,2-a]pyrazin-8-yI]amino]-N,2-dimethyl-N-piperidin-4-ylbenzamide;hydrochloride]	1.3 µM
Cc1cc(Nc2nccn3c(-c4ccc(OC(F)F)cc4)cnc23)ccc1C(=O)N[C@H]1[C@@H](O)[C@H](O)[C@@H](CO)O[C@@H]1O [Example 23, 4-[[3-[4-(difluoromethoxy)phenyl]imidazo[1,2-a]pyrazin-8-yl]amino]-2-methyl-N-[(2S,3S,4R,5S,6R)-2,4,5-trihydroxy-6-(hydroxymethyl)oxan-3-yl]benzamide]	8 µM
